Source: ChEMBL document CHEMBL5647693, “Molecular basis underlying resistance to Mps1/TTK inhibitors” (Oncogene, 2016)

Assays:
Experiment in all cases: cells
Format in all cases: functional, cell-based
HeLa [1] = conditions: Homo sapiens, 120 h
DLD-1 [2] = conditions: Homo sapiens, DLD-1, 120 h
HeLa [3] = conditions: Homo sapiens, 120 h; remark: listed apart in the source
HeLa [4] = conditions: Homo sapiens, 120 h; remark: listed apart in the source
HeLa [5] = conditions: Homo sapiens, 120 h; remark: listed apart in the source
HCT-116 [6] = conditions: Homo sapiens, HCT-116, 120 h
HCT-116 [7] = conditions: Homo sapiens, HCT-116, 120 h; remark: listed apart in the source
HCT-116 [8] = conditions: Homo sapiens, HCT-116, 120 h; remark: listed apart in the source
DLD-1 [9] = conditions: Homo sapiens, DLD-1, 120 h; remark: listed apart in the source
DLD-1 [10] = conditions: Homo sapiens, DLD-1, 120 h; remark: listed apart in the source
HCT-116 [11] = conditions: Homo sapiens, HCT-116, 120 h; remark: listed apart in the source
U2OS = conditions: Homo sapiens, 120 h

SMILES | IC50 (HeLa [1]) | IC50 (DLD-1 [2]) | IC50 (HeLa [3]) | IC50 (HeLa [4]) | IC50 (HeLa [5]) | IC50 (HCT-116 [6]) | IC50 (HCT-116 [7]) | IC50 (HCT-116 [8]) | IC50 (DLD-1 [9]) | IC50 (DLD-1 [10]) | IC50 (HCT-116 [11]) | IC50 (U2OS)
COc1cc(OC2CCN(C)CC2)ccc1Nc1ncc2c(n1)n(C1CCCC1)c(=O)n2C | 3850 nM | > 5000 nM | 1340 nM | > 5000 nM | 2740 nM | 560 nM | 3060 nM | > 5000 nM | 719 nM |  |  | 
Cc1cc(N2CCOCC2)ccc1Nc1nc(NC2CCCCC2)c2nc[nH]c2n1 | 468 nM | > 2000 nM | 282 nM | > 2000 nM | > 2000 nM | 159 nM | 1080 nM | > 2000 nM | 183 nM | 75.4 nM | 63 nM | 106 nM
COc1cc(N2CCC(O)CC2)ccc1Nc1nc(Nc2ccccc2S(=O)(=O)C(C)C)c2nc[nH]c2n1 | 4790 nM | 7930 nM | 3420 nM | 8970 nM | 6790 nM | 1620 nM | 3230 nM | 5400 nM | 2420 nM |  |  | 
